According to ChEMBL document CHEMBL1212849, “The design, synthesis, and evaluation of 8 hybrid DFG-out allosteric kinase inhibitors: a structural analysis of the binding interactions of Gleevec, Nexavar, and BIRB-796” (Bioorg Med Chem, 2010):

Assays:
[1] = biological target: Mitogen-activated protein kinase 14 (Homo sapiens, UniProt Q16539); experiment: Inhibition of human recombinant full-length N-terminal GST-tagged p38alpha expressed in Escherichia coli by radiometric kinase assay
[2] = biological target: Serine/threonine-protein kinase B-raf (Homo sapiens, UniProt P15056)
Description: Inhibition of human recombinant full-length GST-tagged B-Raf by radiometric kinase assay

[3] = biological target: Tyrosine-protein kinase ABL1 (Mus musculus, UniProt P00520)
Tyrosine-protein kinase ABL1, sequence (P00520 whole entry): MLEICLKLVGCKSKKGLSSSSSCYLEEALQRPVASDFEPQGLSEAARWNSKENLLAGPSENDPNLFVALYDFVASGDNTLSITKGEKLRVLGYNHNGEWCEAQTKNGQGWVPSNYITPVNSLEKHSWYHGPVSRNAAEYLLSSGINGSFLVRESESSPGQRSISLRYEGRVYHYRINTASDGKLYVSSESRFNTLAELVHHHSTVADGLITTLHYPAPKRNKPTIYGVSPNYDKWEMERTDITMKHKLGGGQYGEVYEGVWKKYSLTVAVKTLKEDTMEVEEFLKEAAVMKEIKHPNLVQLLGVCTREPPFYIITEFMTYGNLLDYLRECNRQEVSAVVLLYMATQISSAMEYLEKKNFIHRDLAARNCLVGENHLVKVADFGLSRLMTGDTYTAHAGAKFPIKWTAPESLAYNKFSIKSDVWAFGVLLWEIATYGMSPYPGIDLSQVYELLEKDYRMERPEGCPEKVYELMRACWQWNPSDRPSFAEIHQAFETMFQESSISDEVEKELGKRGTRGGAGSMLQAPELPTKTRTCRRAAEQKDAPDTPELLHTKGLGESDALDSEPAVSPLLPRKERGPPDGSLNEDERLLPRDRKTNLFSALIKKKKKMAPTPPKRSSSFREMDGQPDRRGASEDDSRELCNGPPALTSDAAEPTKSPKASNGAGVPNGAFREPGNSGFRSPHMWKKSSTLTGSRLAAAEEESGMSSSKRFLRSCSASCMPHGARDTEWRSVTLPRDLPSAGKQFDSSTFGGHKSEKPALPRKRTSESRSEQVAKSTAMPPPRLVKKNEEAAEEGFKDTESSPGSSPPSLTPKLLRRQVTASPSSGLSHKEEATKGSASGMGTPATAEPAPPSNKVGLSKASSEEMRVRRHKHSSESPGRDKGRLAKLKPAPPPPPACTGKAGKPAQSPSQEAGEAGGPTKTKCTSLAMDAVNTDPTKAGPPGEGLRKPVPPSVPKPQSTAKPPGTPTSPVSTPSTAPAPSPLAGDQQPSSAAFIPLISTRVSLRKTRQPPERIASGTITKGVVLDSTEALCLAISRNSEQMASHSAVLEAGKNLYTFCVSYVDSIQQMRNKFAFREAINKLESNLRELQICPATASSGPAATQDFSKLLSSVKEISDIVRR
Description: Inhibition of mouse recombinant N-terminal His6-tagged Abl by radiometric kinase assay

Mitogen-activated protein kinase 14, sequence (Q16539 whole entry): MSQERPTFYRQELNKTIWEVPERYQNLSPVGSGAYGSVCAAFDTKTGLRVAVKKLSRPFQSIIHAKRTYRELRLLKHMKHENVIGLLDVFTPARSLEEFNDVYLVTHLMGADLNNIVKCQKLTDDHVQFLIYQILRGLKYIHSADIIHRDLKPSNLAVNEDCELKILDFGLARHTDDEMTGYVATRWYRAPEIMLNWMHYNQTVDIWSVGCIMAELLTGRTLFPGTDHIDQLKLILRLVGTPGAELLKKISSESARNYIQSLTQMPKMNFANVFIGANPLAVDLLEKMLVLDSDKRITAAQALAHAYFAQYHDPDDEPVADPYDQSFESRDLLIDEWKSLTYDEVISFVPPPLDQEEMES
Serine/threonine-protein kinase B-raf, sequence (P15056 whole entry): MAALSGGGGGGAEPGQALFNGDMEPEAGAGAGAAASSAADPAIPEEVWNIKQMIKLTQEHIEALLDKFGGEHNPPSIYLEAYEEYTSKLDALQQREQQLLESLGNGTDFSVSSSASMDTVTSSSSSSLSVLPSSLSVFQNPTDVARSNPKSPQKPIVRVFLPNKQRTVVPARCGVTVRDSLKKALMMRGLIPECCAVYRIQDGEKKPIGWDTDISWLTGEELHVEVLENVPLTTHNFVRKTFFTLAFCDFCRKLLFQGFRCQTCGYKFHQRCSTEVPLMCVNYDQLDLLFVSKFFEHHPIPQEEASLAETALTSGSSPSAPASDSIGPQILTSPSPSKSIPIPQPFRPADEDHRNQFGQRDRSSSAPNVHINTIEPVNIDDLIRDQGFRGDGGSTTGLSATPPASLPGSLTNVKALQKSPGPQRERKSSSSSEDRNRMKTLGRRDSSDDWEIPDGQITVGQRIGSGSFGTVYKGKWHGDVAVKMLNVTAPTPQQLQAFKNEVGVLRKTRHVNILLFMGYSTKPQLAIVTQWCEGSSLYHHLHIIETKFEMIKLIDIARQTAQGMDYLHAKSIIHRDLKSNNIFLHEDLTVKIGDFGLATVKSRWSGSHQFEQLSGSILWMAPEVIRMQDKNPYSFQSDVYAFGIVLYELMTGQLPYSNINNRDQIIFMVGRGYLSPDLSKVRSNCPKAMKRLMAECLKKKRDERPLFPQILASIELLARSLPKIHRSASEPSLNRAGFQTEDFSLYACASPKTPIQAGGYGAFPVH

| Compound | IC50 [1] [nM] | IC50 [2] [nM] | IC50 [3] [nM] |
| --- | --- | --- | --- |
| Cc1ccc(-n2nc(C(C)(C)C)cc2NC(=O)Nc2ccc(C)c(Nc3nccc(-c4cccnc4)n3)c2)cc1 | 189 | 414 | 8.6 |
| CN1CCN(Cc2ccc(C(=O)Nc3ccc(OCCN4CCOCC4)c4ccccc34)cc2)CC1 | > 100000 | > 100000 | > 30000 |
| CNC(=O)c1cc(Oc2ccc(NC(=O)c3ccc(CN4CCN(C)CC4)cc3)cc2)ccn1 | > 100000 | > 100000 | > 30000 |
| O=C(Nc1ccc(OCCN2CCOCC2)cc1)Nc1ccc(Cl)c(C(F)(F)F)c1 | 105 | 92.3 | 244 |
| CNC(=O)c1cc(Oc2ccc(NC(=O)Nc3cc(C(C)(C)C)nn3-c3ccc(C)cc3)cc2)ccn1 |  | 237 | 62.6 |
| O=C(Nc1ccc(Cl)c(C(F)(F)F)c1)Nc1ccc(OCCN2CCOCC2)c2ccccc12 |  | < 1 | 12900 |
| CNC(=O)c1cc(Oc2ccc(NC(=O)Nc3ccc(CN4CCN(C)CC4)cc3)cc2)ccn1 | > 100000 | > 100000 | 572 |
| Cc1ccc(NC(=O)Nc2ccc(Cl)c(C(F)(F)F)c2)cc1Nc1nccc(-c2cccnc2)n1 | 18.4 | 180 | < 1 |
